Patent US8722729B2, “Unsaturated fatty acid monoesters and diesters on ascorbic acid and cosmetic uses thereof” (Pierre Fabre Dermo-Cosmetique, priority 2009, dated 2014)
Marks after values point to notes of the source that are not given here.

Tests used:
MMP-3 = experiment: Gene expression of MMP-3 in human dermal fibroblasts treated with H2O2 (real-time PCR); type: cell-based; conditions: for RQ (relative quantity of mRNA) MMP-3 / % Inhibition of the level of mRNA expression MMP-3: 3 μM; for RQ (relative quantity of mRNA) MMP-3: senescent fibroblasts stimulated with H2O2, non-treated control = 1; for % Inhibition of the level of mRNA expression MMP-3: vs H2O2 alone
Procedure: (§1) To evidence the activity of the compounds of general formula (I) against skin ageing and against inflammation, the effect of these compounds was measured on the gene expression of MMP-1, MMP-3 and IL8 in human dermal fibroblasts treated with H2O2, thereby mimicking the process of cellular senescence. The effect of these compounds of general formula (I) was also measured on the synthesis of hyaluronic acid and on hyaluronidase activity. The stimulation of the synthesis of hyaluronic acid also allows skin hydration to be improved and/or restored (Bissett D L. J. Cosmet. Dermatol. 2006 Dec. 5(4): 309-15. Glucosamine: an ingredient with skin and other benefits).
(§2) Human dermal fibroblasts (isolated from discarded operative skin) were cultured in DMEM culture medium+10% FCS. The cells were pre-treated with vitamin C and the compound to be tested for 16 h at 37° C. and then stimulated with H2O2. The cells were then replaced in DMEM with vitamin C and dioctadeca-9,12-dienoate of (9Z,9′Z,12Z,12′Z)-2-(2,2-dimethyl-1,3-dioxolan-4-yl)-5-oxo-2,5-dihydrofuran-3,4-diyl. 72 hours after ending of stress, the fibroblasts entered into senescence: the senescent fibroblasts no longer proliferate but remain metabolically active (Hayflick, J. Invest. Dermatol., 73; 8-14, 1979). The cells were then lysed with the lysis buffer of the RNeasy® kit (QIAGEN).
(§3) The extracted RNAs were converted to complementary DNA following the indications of the Quantitect Reverse Transcription kit by Qiagen. Real-time PCR analyses were conducted using an iQ cycler fluorescence thermocycler (BIO-RAD).
(§4) The level of expression of the mRNAs coding for MMP-1, MMP-3, IL8 was analyzed using the real-time PCR technique. To normalize the level of expression of the gene of interest, the analysis strategy developed by Vandesompela et al., Genome Biol. 3: RESEARCH0034 (2002) was chosen. […] In our model, the three tested reference genes were the following: β-actin (Human β-actin), GAPDH (Human glyceraldehyde-3-phosphate dehydrogenase) and YWHAZ (Tyrosine-3-monooxygenase, tryptopgan-5-monooxygenase activation protein zeta polypeptide).
(§5) The first step normalizes the Ct values obtained for the gene of interest in relation to the Ct values obtained for the reference gene, for each experimental condition.
(§6) The following was therefore calculated: ΔCt=Ctgene of interest−Ctreference gene
(§7) The second step of the calculation determines the variation in the number of copies of the gene of interest during treatment. To do so ΔΔCt is calculated: ΔΔCt=ΔCtnon-treated NHF−ΔCttreated NHF
(§8) For the non-treated control, this QR is therefore equal to 1. It is then possible to calculate an induction or inhibition factor of the gene of interest compared with this control.
(§9) Statistical analysis was performed using a test called “one-way ANOVA”. Variance analysis using the Dunnett test then allows the comparing, for each of the analyzed genes, of the ΔCt values of normal adult fibroblasts with the compounds in the presence of H2O2 in both cases. This test then gives the “p value” characterizing the significance of the results obtained for both conditions The degree of significance was established as follows: • significant for p<0.05(*) • very significant for p<0.005(**) • highly significant for p<0.001(***) • non-significant for p>0.05. […]
(§10) It is also possible to calculate percentage inhibition of the level of expression of the different mRNAs by the active ingredients to be evaluated, using the formula: […]

IL-8 = experiment: Gene expression of IL8 in human dermal fibroblasts treated with H2O2 (real-time PCR); type: cell-based; conditions: for RQ (relative quantity of mRNA) IL-8 / % Inhibition of the level of mRNA expression IL-8: 3 μM; for RQ (relative quantity of mRNA) IL-8: senescent fibroblasts stimulated with H2O2, non-treated control = 1; for % Inhibition of the level of mRNA expression IL-8: vs H2O2 alone
Procedure: as §1, §2, §3, §4, §5, §6, §7, §8, §9, §10

B16-F10 cells = experiment: Assay of melanin in B16-F10 cells (colorimetric, α-MSH stimulated); type: cell-based, murine; conditions: for inhibition at 10 µM / inhibition at 20 µM / inhibition at 50 µM / inhibition at 100 µM: B16-F10, 72 hours, read-out: Percentage inhibition of intracellular melanin
Procedure: Similarly, to evidence the depigmenting activity of the compounds of general formula (I) according to the invention, the effect of these compounds was measured on the synthesis of melanin by colorimetric assay on a cell line of murine melanomas: line B16-F10.
This is a test to measure the synthesis of melanin by colorimetric assay on a cell line of murine melanomas: line B16-F10. This test allows the evaluation of the depigmenting property of active ingredients.
The B16-F10 cells were seeded onto 96-well plates in DMEM medium supplemented with FCS (fetal calf serum) and incubated 24 hours at 37° C., 5% CO2. The cells were then stimulated with α-MSH (to stimulate the synthesis of melanin, the stimulation observed was about 150%) and treated 72 hours with the active ingredients to be tested. Each concentration of active ingredient was tested at least in triplicate. Total melanin followed by intracellular melanin dissolved in lysis buffer were then assayed by absorbency reading at 405 nm. The total proteins were determined in the lysate and the results are expressed in mg melanin/mg proteins. The percentage activity was calculated as follows: […]
A negative value indicates an inhibition, whereas a positive value indicates induced synthesis of melanin.

keratinocytes HaCaT = experiment: Assay of the synthesis of hyaluronic acid in HaCaT keratinocytes (ELISA); type: cell-based, human; conditions: for Percentage stimulation of the synthesis of hyaluronic acid: 48 h, vs control
Procedure: The keratinocytes HaCaT are cultured in DMEM culture medium+10% FCS. The cells are treated with the active ingredients to be tested (Table 1) for 48 h at 37° C. The synthesized hyaluronic acid (HA) is assayed in the culture medium using an ELISA type kit (Echelon®).
The percentage activity was determined as follows • percentage variation compared with the control %p/C=([HA]active ingred./[HA]control×100)−100 4.4.2 Results of the Assay of Hyaluronic Acid on the Line of Human Keratinocytes HaCaT

[1] = tested on: Human dermal papilla cells; experiment: In vitro stimulation of the proliferation of dermal papilla cells (BrdU incorporation); type: cell-based; conditions: 12.5 μM; 60 h; best activity
Procedure: Human dermal papilla cells (Promocell) were placed in culture and held in early passage culture in DMEM medium supplemented with 10% FCS. They were then seeded in a 96-well plate in DMEM medium supplemented with 10% FCS for 12 h. The culture medium was replaced by serum-free DMEM medium then by DMEM supplemented with 1% FCS and molecules 1, 2, 3 and 4 at the different tested concentrations After incubation for 60 h, cell proliferation was evaluated by incorporation of BrdU.
The diagrams in appended FIG. 1 show the increase in BrdU incorporation and the stimulated cellular proliferation of the cells in the presence of the different molecules (as a percent of the control).

Row | SMILES | Inhibition of MMP3 expression compared with ascorbic acid (MMP-3) | RQ (relative quantity of mRNA) MMP-3 (MMP-3) | % Inhibition of the level of mRNA expression MMP-3 (MMP-3) | Inhibition of IL-8 expression compared with ascorbic acid (IL-8) | RQ (relative quantity of mRNA) IL-8 (IL-8) | % Inhibition of the level of mRNA expression IL-8 (IL-8) | Inhibition of the synthesis of intracellular melanin compared with vitamin C (B16-F10 cells) | inhibition at 10 µM (B16-F10 cells; Mus musculus) [%] | inhibition at 20 µM (B16-F10 cells; Mus musculus) [%] | inhibition at 50 µM (B16-F10 cells; Mus musculus) [%] | inhibition at 100 µM (B16-F10 cells; Mus musculus) [%] | IC50 (B16-F10 cells; Mus musculus, B16-F10, α-MSH stimulated, read-out: IC50 intracellular melanin) [µM] | Percentage stimulation of the synthesis of hyaluronic acid (keratinocytes HaCaT; 2 μM) [%] | Percentage stimulation of the synthesis of hyaluronic acid (keratinocytes HaCaT; 20 μM) [%] | Proliferation of the cells of the dermal papilla (percent of the control) [1] [%] | Percentage stimulation of the synthesis of hyaluronic acid (keratinocytes HaCaT; 30 μM) [%] | Percentage stimulation of the synthesis of hyaluronic acid (keratinocytes HaCaT; 300 μM) [%] | Effect on the synthesis of hyaluronic acid (keratinocytes HaCaT; 30 and 300 μM)
1 | CCCCC/C=C\C/C=C\CCCCCCCC(=O)OC1=C(OC(=O)CCCCCCC/C=C\C/C=C\CCCCC)C(C2COC(C)(C)O2)OC1=O (centres unmarked) [Molecule 1, diactodeca-9,12-dienoate of (9Z,9′Z,12Z,12′Z)-2-(2,2-dimethyl-1,3-dioxolan-4-yl)-5-oxo-2,5-dihydrofuran-3,4-diyl] | more substantially inhibits the expression of MMP1, MMP3 and IL-8 than ascorbic acid | 1.9 | 81*** % | more substantially inhibits the expression of MMP1, MMP3 and IL-8 than ascorbic acid | 0.9 | 102*** % | greater than that of vitamin C | 9 | 21 | 41 | 71 | 67 | 132 | 70 | 169 | – | – | –
2 | O=C1O[C@H]([C@@H](O)CO)C(O)=C1O [Ascorbic acid, ascorbic acid] | – | 3.5 | 50* % | – | 1.2 | 92*** % | – | -5 | 7 | 5 | 22 | – | – | – | – | 9 | 19 | no effect
